As a reminder, the pIC50 is the IC50 on a negative log10 scale, so that one unit is a factor of ten.

pIC50: −log10 of the molar value. Some results are limits rather than exact numbers.

This note sets out measurements from patent US6967196B1, “Sulfonamide compounds and uses thereof” (Bristol-Myers Squibb Company, priority 1999, dated 2005).

The subject of one assay is amyloid β production in transfected H4 (human neuroglioma) cells stably expressing APP constructs. Kind of assay: In vitro cell-based assay of inhibitors of amyloid β production (ELISA). Conditions: transfected H4 cells stably expressing APP; approx. 16 h incubation; amyloid β in medium by ELISA; read-out: ACTIVITY (IC50, inhibition of amyloid β production). The method, boiled down:
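Aβ secreted into the medium was determined by a two-antibody ELISA specific for the Aβ C-terminus, calibrated with known Aβ amounts. Before that, compounds (10-100 μM initially) were left on the cells for roughly 16 hours.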
For orientation: In an ELISA, binding on a coated surface is turned into a signal by an enzyme label.
Take “N-{3-[2-(1-{[(4-chlorophenyl)sulfonyl]-2,5-difluoroanilino}ethyl)phenoxy]propyl}-4-methylbenzamide [Example 707]”: the pIC50 is 6.30 to 7.00.

For the substance “N-{3-[2-(1-{[(4-chlorophenyl)sulfonyl]-2,5-difluoroanilino}ethyl)phenoxy]propyl}-4-nitrobenzamide [Example 805]”, the negative logarithm of the IC50 (pIC50) is 6.30 to 7.00.

As for “N-{3-[2-(1-{[(4-chlorophenyl)sulfonyl]-2,5-difluoroanilino}ethyl)phenoxy]propyl}-N,2-dimethylbenzamide [Example 693]”, the pIC50 is 6.30 to 7.00.

For the substance “N-{3-[2-(1-{[(4-chlorophenyl)sulfonyl]-2,5-difluoroanilino}ethyl)phenoxy]propyl}-N,4-dimethylbenzamide [Example 741]”, the pIC50 is 6.30 to 7.00.

As for “N-{3-[2-(1-{[(4-chlorophenyl)sulfonyl]-2,5-difluoroanilino}ethyl)phenoxy]propyl}-N-methyl-1-naphthalenesulfonamide [Example 776]”, the pIC50 was 6.30 to 7.00.

On to “N-{3-[2-(1-{[(4-chlorophenyl)sulfonyl]-2,5-difluoroanilino}ethyl)phenoxy]propyl}-N-methyl-2-naphthalenesulfonamide [Example 671]”, for which the pIC50 was 6.30 to 7.00.

On to “N-{3-[2-(1-{[(4-chlorophenyl)sulfonyl]-2,5-difluoroanilino}ethyl)phenoxy]propyl}-N-methyl-3-(trifluoromethyl)benzamide [Example 657]”, for which the pIC50 is 6.30 to 7.00.

As to “N-{3-[2-(1-{[(4-chlorophenyl)sulfonyl]-2,5-difluoroanilino}ethyl)phenoxy]propyl}-N-methyl-3-nitrobenzamide [Example 737]”, the pIC50 is 6.30 to 7.00.

As for “N-{3-[2-(1-{[(4-chlorophenyl)sulfonyl]-2,5-difluoroanilino}ethyl)phenoxy]propyl}-N-methyl-4-(trifluoromethoxy)benzamide [Example 770]”, the negative logarithm of the IC50 (pIC50) was 6.30 to 7.00.

For the substance “N-{3-[2-(1-{[(4-chlorophenyl)sulfonyl]-2,5-difluoroanilino}ethyl)phenoxy]propyl}-N-methyl-4-(trifluoromethyl)benzamide [Example 703]”, the pIC50 is 6.30 to 7.00.

As for “N-{3-[2-(1-{[(4-chlorophenyl)sulfonyl]-2,5-difluoroanilino}ethyl)phenoxy]propyl}-N-methyl-4-propylbenzamide [Example 656]”, the negative-log IC50 (pIC50) is 6.30 to 7.00.

As for “N-{3-[2-(1-{[(4-chlorophenyl)sulfonyl]-2,5-difluoroanilino}methyl)phenoxy]propyl}-2-fluoro-N-methylbenzamide [Example 733]”, the pIC50 is 6.30 to 7.00.

For “N-{3-[2-(1-{[(4-chlorophenyl)sulfonyl]-2,5-difluoroanilino}methyl)phenoxy]propyl}-N-methyl-2-phenylcyclopropanecarboxamide [Example 759]”, the pIC50 is 6.30 to 7.00.

Regarding “N-{3-[2-({[(4-chlorophenyl)sulfonyl]-2,5-difluoroanilino}methyl)phenoxy]propyl}-2,3-difluoro-N-methylbenzamide [Example 665]”, the pIC50 was 6.30 to 7.00.

As for “N-{3-[2-({[(4-chlorophenyl)sulfonyl]-2,5-difluoroanilino}methyl)phenoxy]propyl}-2-iodo-N-methylbenzamide [Example 716]”, the negative logarithm of the IC50 (pIC50) is 6.30 to 7.00.

As for “N-{3-[2-({[(4-chlorophenyl)sulfonyl]-2,5-difluoroanilino}methyl)phenoxy]propyl}-2-methoxy-N-methylbenzamide [Example 775]”, the pIC50 was 6.30 to 7.00.

Regarding “N-{3-[2-({[(4-chlorophenyl)sulfonyl]-2,5-difluoroanilino}methyl)phenoxy]propyl}-4-fluoro-N-methylbenzamide [Example 747]”, the negative-log IC50 (pIC50) was 6.30 to 7.00.

Take “N-{3-[2-({[(4-chlorophenyl)sulfonyl]-2,5-difluoroanilino}methyl)phenoxy]propyl}-4-iodo-N-methylbenzamide [Example 765]”: the negative logarithm of the IC50 (pIC50) is 6.30 to 7.00.

For the substance “N-{3-[2-({[(4-chlorophenyl)sulfonyl]-2,5-difluoroanilino}methyl)phenoxy]propyl}-N,2-dimethylbenzamide [Example 680]”, the negative logarithm of the IC50 (pIC50) was 6.30 to 7.00.

Consider “N-{3-[2-({[(4-chlorophenyl)sulfonyl]-2,5-difluoroanilino}methyl)phenoxy]propyl}-N,3-dimethylbenzamide [Example 696]”, for which the negative logarithm of the IC50 (pIC50) was 6.30 to 7.00.

The same assay, now with this note: transfected H4 cells stably expressing APP; approximately 16 hours incubation; amyloid β in medium by ELISA; read-out: ACTIVITY (IC50, inhibition of amyloid β production).
For “N-{3-[2-(1-{[(4-chlorophenyl)sulfonyl]-2,5-difluoroanilino}ethyl)phenoxy]propyl}-N-methyl-1-naphthamide [Example 966]”, the pIC50 is less than 6.30.

On to “N-{3-[2-(1-{[(4-chlorophenyl)sulfonyl]-2,5-difluoroanilino}ethyl)phenoxy]propyl}-N-methyl-2,5-bis(trifluoromethyl)benzamide [Example 892]”, for which the pIC50 was less than 6.30.

Turning to “N-{3-[2-(1-{[(4-chlorophenyl)sulfonyl]-2,5-difluoroanilino}ethyl)phenoxy]propyl}-N-methyl-2-naphthamide [Example 858]”, the pIC50 is 6.30 to 7.00.

On to “N-{3-[2-(1-{[(4-chlorophenyl)sulfonyl]-2,5-difluoroanilino}ethyl)phenoxy]propyl}-N-methyl-3,5-bis(trifluoromethyl)benzamide [Example 934]”, for which the pIC50 is less than 6.30.

In the case of “N-{3-[2-({[(4-chlorophenyl)sulfonyl]-2,5-difluoroanilino}ethyl)phenoxy]propyl}-3,4,5-trimethoxy-N-methylbenzamide [Example 913]”, the pIC50 was less than 6.30.

For the substance “N-{3-[2-({[(4-chlorophenyl)sulfonyl]-2,5-difluoroanilino}methyl)phenoxy]propyl}-2,3,4-trifluoro-N-methylbenzamide [Example 864]”, the negative-log IC50 (pIC50) was 6.30 to 7.00.

For the substance “N-{3-[2-({[(4-chlorophenyl)sulfonyl]-2,5-difluoroanilino}methyl)phenoxy]propyl}-2,4,5-trifluoro-N-methylbenzamide [Example 813]”, the negative-log IC50 (pIC50) is 6.30 to 7.00.

With “N-{3-[2-({[(4-chlorophenyl)sulfonyl]-2,5-difluoroanilino}methyl)phenoxy]propyl}-2,4-dimethoxy-N-methylbenzamide [Example 834]”, the negative logarithm of the IC50 (pIC50) is 6.30 to 7.00.

Turning to “N-{3-[2-({[(4-chlorophenyl)sulfonyl]-2,5-difluoroanilino}methyl)phenoxy]propyl}-3,4,5-trimethoxy-N-methylbenzamide [Example 989]”, the pIC50 is less than 6.30.

For the substance “N-{3-[2-({[(4-chlorophenyl)sulfonyl]-2,5-difluoroanilino}methyl)phenoxy]propyl}-3,4-dimethoxy-N-methylbenzamide [Example 960]”, the negative logarithm of the IC50 (pIC50) is less than 6.30.

As to “N-{3-[2-({[(4-chlorophenyl)sulfonyl]-2,5-difluoroanilino}methyl)phenoxy]propyl}-3,5-difluoro-N-methylbenzamide [Example 1000]”, the pIC50 is less than 6.30.

Turning to “N-{3-[2-({[(4-chlorophenyl)sulfonyl]-2,5-difluoroanilino}methyl)phenoxy]propyl}-3-fluoro-N-methylbenzamide [Example 862]”, the pIC50 was 6.30 to 7.00.

“N-{3-[2-({[(4-chlorophenyl)sulfonyl]-2,5-difluoroanilino}methyl)phenoxy]propyl}-3-methoxy-N-methylbenzamide [Example 814]”: the negative-log IC50 (pIC50) is 6.30 to 7.00.

On to “N-{3-[2-({[(4-chlorophenyl)sulfonyl]-2,5-difluoroanilino}methyl)phenoxy]propyl}-4-ethoxy-N-methylbenzamide [Example 1010]”, for which the pIC50 was less than 6.30.

Regarding “N-{3-[2-({[(4-chlorophenyl)sulfonyl]-2,5-difluoroanilino}methyl)phenoxy]propyl}-N,4-dimethyl-3-nitrobenzamide [Example 907]”, the pIC50 was less than 6.30.

Consider “N-{3-[2-({[(4-chlorophenyl)sulfonyl]-2,5-difluoroanilino}methyl)phenoxy]propyl}-N,4-dimethylbenzamide [Example 893]”, for which the pIC50 was less than 6.30.

On to “N-{3-[2-({[(4-chlorophenyl)sulfonyl]-2,5-difluoroanilino}methyl)phenoxy]propyl}-N-methyl-1,3-benzodioxole-5-carboxamide [Example 903]”, for which the pIC50 is less than 6.30.

Take “N-{3-[2-({[(4-chlorophenyl)sulfonyl]-2,5-difluoroanilino}methyl)phenoxy]propyl}-N-methyl-1-naphthamide [Example 821]”: the pIC50 was 6.30 to 7.00.

Take “N-{3-[2-({[(4-chlorophenyl)sulfonyl]-2,5-difluoroanilino}methyl)phenoxy]propyl}-N-methyl-2-naphthamide [Example 810]”: the pIC50 was 6.30 to 7.00.

For “N-{3-[2-({[(4-chlorophenyl)sulfonyl]-2,5-difluoroanilino}methyl)phenoxy]propyl}-N-methyl-2-phenylcyclopropanecarboxamide [Example 917]”, the negative logarithm of the IC50 (pIC50) was less than 6.30.

With “N-{3-[2-({[(4-chlorophenyl)sulfonyl]-2,5-difluoroanilino}methyl)phenoxy]propyl}-N-methyl-3-(trifluoromethyl)benzamide [Example 891]”, the pIC50 was less than 6.30.

“N-{3-[2-({[(4-chlorophenyl)sulfonyl]-2,5-difluoroanilino}methyl)phenoxy]propyl}-N-methyl-4-(trifluoromethoxy)benzamide [Example 873]”: the negative logarithm of the IC50 (pIC50) is 6.30 to 7.00.

Take “N-{3-[2-({[(4-chlorophenyl)sulfonyl]-2,5-difluoroanilino}methyl)phenoxy]propyl}-N-methyl-4-(trifluoromethyl)benzamide [Example 898]”: the pIC50 was less than 6.30.

Take “N-{3-[2-({[(4-chlorophenyl)sulfonyl]-2,5-difluoroanilino}methyl)phenoxy]propyl}-N-methyl-4-nitrobenzamide [Example 872]”: the pIC50 is 6.30 to 7.00.
